# Experimental data reported in patent US20050261330A1, “Derivatives of 2,2,4-trisubstituted tetrahydrofuran an antifungal agents” (priority 2002, published 2005).
# Experiments:
# [1] = tested on: Aspergillus fumigatus Si-I; assay: MIC, NCCLS M38P broth dilution; type: cell-based; conditions: RPMI 1640, MOPS pH 7
# [2] = tested on: Cryptococcus neoformans I; assay: MIC, NCCLS M27A broth dilution; type: cell-based; conditions: RPMI 1640, MOPS pH 7
# [3] = tested on: Candida albicans ATCC 36082; assay: MIC, NCCLS M27A broth dilution; type: cell-based; conditions: RPMI 1640, MOPS pH 7
# [4] = tested on: Histoplasma capsulatum; type: cell-based; conditions: RPMI 1640, MOPS pH 7
# [5] = tested on: Aspergillus fumigatus 1008; assay: MIC, NCCLS M38P broth dilution; type: cell-based; conditions: RPMI 1640, MOPS pH 7
# [6] = tested on: Candida brusei ATCC 6258 (QC); assay: MIC, NCCLS M27A broth dilution; type: cell-based; conditions: RPMI 1640, MOPS pH 7
# [7] = tested on: Paecilomyces variotti ATCC 22319 (QC); assay: MIC, NCCLS broth dilution; type: cell-based; conditions: RPMI 1640, MOPS pH 7
# [8] = tested on: Candida glabrata 90030; assay: MIC, NCCLS M27A broth dilution; type: cell-based; conditions: RPMI 1640, MOPS pH 7
# [9] = tested on: Candida parapsilosis ATCC 22019 (QC); assay: MIC, NCCLS M27A broth dilution; type: cell-based; conditions: RPMI 1640, MOPS pH 7
# [10] = tested on: Cryptococcus neoformans M 106; assay: MIC, NCCLS M27A broth dilution; type: cell-based; conditions: RPMI 1640, MOPS pH 7
# [11] = tested on: Candida albicans Y-01-19; assay: MIC, NCCLS M27A broth dilution; type: cell-based; conditions: RPMI 1640, MOPS pH 7
# [12] = tested on: Candida tropicalis ATCC 750; assay: MIC, NCCLS M27A broth dilution; type: cell-based; conditions: RPMI 1640, MOPS pH 7
# [13] = tested on: Candida krusel 766.1; assay: MIC, NCCLS M27A broth dilution; type: cell-based; conditions: RPMI 1640, MOPS pH 7
# [14] = tested on: Candida albicans 1122; assay: MIC, NCCLS M27A broth dilution; type: cell-based; conditions: RPMI 1640, MOPS pH 7
# [15] = tested on: Candida albicans 1162; assay: MIC, NCCLS M27A broth dilution; type: cell-based; conditions: RPMI 1640, MOPS pH 7
# [16] = tested on: ergosterol P450DM; conditions: A. fumigatus lysates; relative to fluconazole; cited from earlier work
# [17] = molecular target: T1, ergosterol P450DM (Candida albicans, UniProt P10613); conditions: C. albicans lysates; relative to fluconazole; cited from earlier work
# T1 construct: host or cells: C. albicans lysates
# T1 sequence (P10613 whole entry): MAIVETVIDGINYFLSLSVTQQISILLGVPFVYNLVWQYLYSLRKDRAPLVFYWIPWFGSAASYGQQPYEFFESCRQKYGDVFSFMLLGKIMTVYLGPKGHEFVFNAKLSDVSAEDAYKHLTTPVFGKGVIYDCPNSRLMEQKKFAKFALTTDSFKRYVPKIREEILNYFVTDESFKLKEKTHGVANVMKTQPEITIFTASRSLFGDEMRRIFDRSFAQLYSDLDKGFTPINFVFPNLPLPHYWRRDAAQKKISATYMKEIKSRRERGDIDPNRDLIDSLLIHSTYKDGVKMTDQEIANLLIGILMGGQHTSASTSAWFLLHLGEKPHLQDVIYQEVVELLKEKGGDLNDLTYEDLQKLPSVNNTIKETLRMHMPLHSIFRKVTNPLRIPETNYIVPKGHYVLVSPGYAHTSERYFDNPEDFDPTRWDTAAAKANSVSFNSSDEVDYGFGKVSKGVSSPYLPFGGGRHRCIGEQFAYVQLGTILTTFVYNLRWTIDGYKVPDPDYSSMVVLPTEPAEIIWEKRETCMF
Compound,MIC [1],MIC [2],MIC [3],MIC [4],MIC [5],MIC [6],MIC [7],MIC [8],MIC [9],MIC [10],MIC [11],MIC [12],MIC [13],MIC [14],MIC [15],greater inhibition of ergosterol P450DM compared to fluconazole [16],greater inhibition of ergosterol P450DM compared to fluconazole [17]
"2-[(5R,3S)-5-(2,4-Difluorophenyl)-tetrahydro-5-(1H-1,2,4-triazol-1yl-methyl)-furan-3-yl-methyl]-4-[4-(phenyl)-1,2,4-triazol-1-yl]-2,4-dihydro-3(2H,4H)-1,2,4-triazolone [Compound No. 2]",16 µg/mL,8 µg/mL,0.125 µg/mL,16 µg/mL,16 µg/mL,8 µg/mL,8 µg/mL,16 µg/mL,8 µg/mL,8 µg/mL,16 µg/mL,0.5 µg/mL,16 µg/mL,–,–,–,–
"2-[(5R,3S)-5-(2,4-Difluorophenyl)-tetrahydro-5-(1H-1,2,4-triazol-1yl-methyl)-furan-3-yl-methyl]-4-{4-[4-(phenyl)-1-piperazinyl]-chlorophenyl}-2,4-dihydro-3(2H,4H-1,2,4-triazolone [Compound No. 5]",1 µg/mL,< 0.03 µg/mL,0.03 µg/mL,0.25 µg/mL,2 µg/mL,0.25 µg/mL,1 µg/mL,1 µg/mL,0.03 µg/mL,0.125 µg/mL,0.125 µg/mL,0.03 µg/mL,1 µg/mL,–,–,–,–
O=c1n(-c2ccc(O)cc2)cnn1C[C@H]1CO[C@@](Cn2cncn2)(c2ccc(F)cc2F)C1 [Compound No. 3],> 16 µg/mL,8 µg/mL,16 µg/mL,16 µg/mL,> 16 µg/mL,16 µg/mL,> 16 µg/mL,16 µg/mL,16 µg/mL,8 µg/mL,8 µg/mL,16 µg/mL,16 µg/mL,–,–,–,–
O=c1n(-c2ccc(Cn3cncn3)cc2)cnn1C[C@@H]1CO[C@@](Cn2cncn2)(c2ccc(F)cc2F)C1 [Compound No. 4],16 µg/mL,8 µg/mL,2 µg/mL,16 µg/mL,16 µg/mL,16 µg/mL,16 µg/mL,16 µg/mL,8 µg/mL,8 µg/mL,16 µg/mL,16 µg/mL,16 µg/mL,–,–,–,–
"O=c1n(-c2ccc(OCc3ccccc3)cc2)cnn1C[C@H]1CO[C@@](Cn2cncn2)(c2ccc(F)cc2F)C1 [Compound No. 6, 2-[(5R,3S)-5-(2,4-Difluorophenyl)-tetrahydro-5-(1H-1,2,4-triazol-1yl-methyl)-furan-3-yl-methyl]-4-[4-(benzyloxy)-phenyl]-2,4-dihydro-3(2H,4H)-1,2,4-triazolone]",16 µg/mL,2 µg/mL,0.03 µg/mL,0.5 µg/mL,16 µg/mL,4 µg/mL,16 µg/mL,2 µg/mL,0.25 µg/mL,2 µg/mL,1 µg/mL,0.06 µg/mL,8 µg/mL,–,–,–,–
"O=c1n(-c2ccc(N3CCN(c4ccc(OCc5ccccc5)cc4)CC3)cc2)cnn1C[C@H]1CO[C@@](Cn2cncn2)(c2ccc(F)cc2F)C1 [Compound No. 7, 2-[(5R,3S)-5-(2,4-Difluorophenyl)-tetrahydro-5-(1H-1,2,4-triazol-1yl-methyl)-furan-3-yl-methyl]-4-{4-[4-[4-(benzyloxy)-phenyl]-1-piperazinyl]-phenyl}-2,4-dihydro-3(2H,4H)-1,2,4-triazolone]",16 µg/mL,0.06 µg/mL,< 0.03 µg/mL,16 µg/mL,16 µg/mL,8 µg/mL,1 µg/mL,16 µg/mL,0.125 µg/mL,0.125 µg/mL,16 µg/mL,0.125 µg/mL,16 µg/mL,–,–,–,–
"O=c1n(-c2ccc(-n3cnnn3)cc2)cnn1C[C@@H]1CO[C@@](Cn2cncn2)(c2ccc(F)cc2F)C1 [Compound No. 9, 2-[(5R,3R)-5-(2,4-Difluorophenyl)-tetrahydro-5-(1H-1,2,4-triazol-1yl-methyl)-furan-3-yl-methyl]-4-[4-(1,2,3,4-tetrazol-1-yl)-phenyl]-2,4-dihydro-3(2H,4H)-1,2,4-triazolone]",≧128 g/ml,32 µg/mL,–,64 µg/mL,> 128 µg/mL,64 µg/mL,32 µg/mL,64 µg/mL,16 µg/mL,8 µg/mL,64 µg/mL,8 µg/mL,64 µg/mL,4 µg/mL,64 µg/mL,–,–
C[C@@H](c1ncncc1F)[C@](O)(Cn1cncn1)c1ccc(F)cc1F [Voriconazole],–,–,–,–,–,–,–,–,–,–,–,–,–,–,–,160 fold,1.6 fold
